For orientation: melting point means the temperature, or range, at which the solid turns liquid. Consider `Cc1ccc2c(O)cc(=O)oc2c1C`, for which the melting point lay in the range of 186 to 190 °C.

`O=C1CCc2ccc(O)c(c2)Oc2ccc(cc2)C=CCO1`: the melting point lay in the range of 148 to 151 °C. Next, `COc1ncccc1-c1cccn2nc(Nc3ccc(C4CCN(CC(=O)N(C)C)CC4)cc3)nc12`: 173 to 175 °C. `Cc1c(N2CC3CN(Cc4ccccc4)CC3C2)nn2c(-c3ccnc(NC(=O)OC(C)(C)C)c3)c(-c3ccc(F)cc3)nc2c1C` (stereo unspecified) yielded a melting point of 214 to 216 °C.

`Cc1nn(-c2ccc(C(F)(F)F)cn2)cc1CCCO` registered a melting point of 103 to 104 °C.

`C=CCOC(=O)N1CCC[C@@H](OC)[C@@H]1CC(=O)Cn1cnc2cc(Cl)c(Oc3ccc(Cl)cc3)cc2c1=O` (relative stereo) registered a melting point of 138 to 141 °C.

In turn, `CCOC(=O)c1cnn(C)c1C(=O)Nc1ccn2nc(-c3cccc(F)n3)nc2c1` had a melting point of 290 °C.

Consider `Cc1cc(Nc2ccccc2C(=O)O)n(Cc2cccnc2)n1`, for which the melting point fell in the range of 180 to 183 °C.

For the compound `COc1ccc(C2=NN(c3ccc(S(N)(=O)=O)cc3)C(=O)[C@H]3CC=CC[C@@H]23)cc1OC` (relative stereo), the melting point is 181 to 183 °C. For `CCCCCCCCCCCC(=O)NCCNCCNCCNC(=O)CCCCCCCCCCC`, the melting point was 110 to 112 °C. As to `CCOC(=O)c1c(CN2CCOCC2)nc2cc(OC)c(OC)cc2c1-c1ccccc1OC`, the melting point was 153 to 154 °C.

For `CCCn1c(=O)c2ccc(NC(=O)CC3CCCC3)cc2n1Cc1ccc(C(=O)O)cc1OC`, the melting point was 122 to 125 °C.

The compound `COc1cccc(OC)c1C(=O)Nc1ccc(C(=O)O)cc1` gave a melting point of 236 to 240 °C. As to `CCOC(=O)c1nnc2ccc(NC(=O)OCc3ccccc3)cc2c1O`, the melting point was in the range of 250 to 252 °C.

In turn, `Nn1c(C(F)(F)F)cc(=O)n(-c2ccc(O)cc2)c1=O` showed a melting point of 150 to 155 °C. Next, `CNC(=O)N(O)C(C)c1cc2ccccc2s1` (stereo unspecified): 149 to 150 °C; `COc1ccc(-c2c[nH]c(=S)n2O)cc1`: 150 °C. Then `CC(C)c1nc2ccccc2c(=O)n1NC(=O)C(C)c1ccccc1` (stereo unspecified), with 48 to 55 °C.

In turn, `CCCC[C@@H](C)C[C@@H](CC(=O)OC(C)(C)C)C(=O)N1C(=O)O[C@@H](c2ccccc2)[C@H]1C` displayed a melting point of 84 to 86 °C. The compound `O=Cc1ccc2c(c1)c1cc(C=O)ccc1n2Cc1ccccc1` displayed a melting point of 222 to 224 °C. Consider `C#Cc1ccc(C2(C3CCCCCCC3)CCCCCCC2)cc1`, for which the melting point came out at 167 °C. Next, `O=C(Nc1nccs1)C1CSc2sccc2C1=O` (stereo unspecified): 201 to 203 °C; `OC(c1ccccc1)(c1ccccc1)C1CCN(CCCOc2ccccc2)CC1`: 87 to 88 °C; `Oc1ccc(C2CCOCC2)cc1`: 164 °C. Then `CN1CCN2C(=O)c3ccccc3C12c1ccccc1` (stereo unspecified), with 120 to 122 °C; and `Cc1ccccc1-c1cc(F)cc2c1NC(CN)CO2` (stereo unspecified), with 78 °C. Then `CNc1ccsc1C(=O)CS(C)=O` (stereo unspecified), with 125 to 127 °C; and `C=C(CC(N)=O)C(=O)O`, with 153 to 154 °C; and `O=C(O)CCn1nc2ccc(S)nn2c1=O`, with 174 to 176 °C. `CC(/C=C/c1c(C)sc(C)c1C)=C(F)\C=C\C(C)=C\C(N)=O` yielded a melting point of 212 to 215 °C. Next, `COc1ccc(Cc2oc3ccc(O)cc3c2C)cc1`: 128 to 131 °C.

`COc1cccc(-n2c(-c3sc(Nc4ccccc4)nc3C)nc3ccccc3c2=O)c1` showed a melting point above 275 °C. Consider `CC(=NN=c1[nH]cccc1Cl)C(F)(F)F`, for which the melting point was in the range of 64 to 64.5 °C. In the case of `O=C(Cl)Cc1ccc([N+](=O)[O-])cc1`, the melting point was in the range of 47.5 to 49 °C.

Compound `Cc1c(CC(=O)N[C@@H](CO[N+](=O)[O-])C(=O)O)cc(-c2ccc(S(C)(=O)=O)cc2)n1-c1ccc(F)cc1` had a melting point of 109 °C.

The compound `COC(=O)Cc1ccc(OCCNC(=O)C2Cc3ccccc3N2S(=O)(=O)c2ccc(-c3ccc(C)cc3)c(C(F)(F)F)c2)cc1` (stereo unspecified) showed a melting point of 60 °C.

For `CC(C)Oc1ccc(CCCOc2cc(CCC(=O)O)n(-c3ccccc3)n2)c(Oc2ccc(Cl)cc2Cl)n1`, the melting point was 60 to 62 °C. Then `COc1ccc2[nH]cc(CC3=CCCN(CCCC(=O)c4cccs4)C3)c2c1`, with 140 to 150 °C; and `Cc1cc(C(N)=O)ncc1C(c1c(F)ccc(F)c1F)S(=O)(=O)CCC(Cl)(Cl)Cl` (stereo unspecified), with 173 to 175 °C. `O=C1CCC(N2C(=O)c3ccccc3C2=O)c2ccsc21` (stereo unspecified) displayed a melting point of 163 to 166 °C. Next, `N#Cc1cccc(-c2ccc(O)cc2)c1`: 135 to 141 °C.

Turning to `CCOC(=O)C=Cc1ccc(F)c([N+](=O)[O-])c1`, the melting point fell in the range of 115 to 117 °C. In turn, `CCOC(=O)c1cn(C2CC2)c2c(Cl)c(F)c(F)c(C)c2c1=O` had a melting point of 153 to 154 °C. Then `Cn1cc(C2=C(c3cn(C)c4cc(O)ccc34)C(=O)NC2=O)c2ccccc21`, with 279 to 282 °C; and `Cn1c(=O)c2cc([N+](=O)[O-])cnc2n(C)c1=O`, with 203 to 205 °C; and `CS(=O)(=O)CS(=O)(=O)OCCCl`, with 60 to 62 °C. Then `c1ccc2[nH]c(-c3ccsc3)cc2c1`, with 212 to 214 °C; and `COc1cc(C)nc(NCn2cncn2)n1`, with 191 to 193 °C; and `CCc1ccc(-c2nn(C)c(=O)c3ccccc23)c(CC)c1`, with 94.5 to 96.5 °C.

Take `CCCCCCCCNC(=O)OC1CCN(C(=O)Oc2ccc(Oc3ccccc3)cc2)CC1`: the melting point was 73 to 75 °C.

Take `N#CC(C=O)=Cc1ccsc1`: the melting point fell in the range of 123 to 124 °C. Then `Cc1c[nH]c(-c2nc([C@H]3CCCN(C(=O)c4ccc(F)cc4)C3)no2)c1`, with 183 °C; and `Cc1ccc(N2CCN(c3cc4c(ncc5c4c(=O)c(C(=O)O)cn5C)c(F)c3Cl)CC2)cc1F`, with 360 °C. Next, `COc1cccc(-c2c(C)c(NC(=O)CC(C)(C)C)c(C)c3c2OCC3c2ccc(C(C)C)cc2)c1` (stereo unspecified): 209 to 210 °C. Compound `O=C(CCl)[C@H](Cc1ccccc1)N(Cc1ccccc1)Cc1ccccc1` gave a melting point of 45.8 to 46.8 °C.

As to `CN(C)C1(c2ccccc2)CCC2(NCCc3c2[nH]c2ccccc32)C(Sc2ccccc2)C1` (stereo unspecified), the melting point lay in the range of 171 to 173 °C. The compound `CCCN1C(=O)/C(=C/c2c[nH]c3ncccc23)N=C1C` yielded a melting point of 206 °C.

In turn, `CCN(C=Nc1ccncc1O)CC` yielded a melting point of 104 to 106 °C.

With `CSC(=N[N+](=O)[O-])NCc1ccc(Cl)nc1`, the melting point lay in the range of 140 to 142 °C. As for `C=CCN1CCC(Nc2nc3cncnc3n2Cc2ccc(F)cc2)CC1`, the melting point worked out at 145 °C. Then `Cc1nccc2[nH]c(=O)c(O)cc12`, with above 320 °C; and `CC(=O)Nc1ccc(Cl)c2c1CN(C)C2`, with 147 to 150 °C. Then `O=C1Cc2c(CCO)cccc2N1`, with 145 to 147 °C; and `Cc1cc([N+](=O)[O-])c(C)cc1Oc1cccc(C(F)(F)F)c1`, with 68 to 71 °C. In turn, `OCC1CC(O)C(n2cnc3c(-n4cccc4)ncnc32)O1` (stereo unspecified) returned a melting point of 175 to 176 °C. Next, `O=C1c2ccccc2C(=O)N1CCn1ccnc1`: 151 to 153 °C; `CCOC(=O)C1(c2ccccc2)CCC=CC1Cl` (stereo unspecified): 137 to 139 °C; `CCn1cc(C(=O)O)c(=O)c2cnc(N3CCN(C(C)=O)CC3)nc21`: 298 to 300 °C.

The compound `CC(C)(C)OC(=O)C(Cc1ccccc1)c1ccc([N+](=O)[O-])cc1` (stereo unspecified) yielded a melting point of 98 to 99 °C. Take `CC1(C)CCc2ccccc2C1n1cncc1C1SCCS1` (stereo unspecified): the melting point is 109 °C.

Regarding `O=C(Nc1ccccc1)N1CCc2cc(S(=O)(=O)N3CCN(c4cccc(Cl)c4)CC3)ccc21`, the melting point is 177 to 178 °C.

`O=C1CCC(N2Cc3c(CNC(=O)Nc4ccccc4)cccc3C2=O)C(=O)N1` (stereo unspecified) showed a melting point of 328 to 330 °C. Regarding `Cc1cc(C(=O)N2Cc3cccn3Cc3ccccc32)ccc1C1=CCCc2ccccc21`, the melting point is 108 °C. Consider `CCCCCCCc1ccc(-c2ccc(N)cc2)cc1`, for which the melting point stood at 79 °C. Compound `CCC(C)COc1ccc(N=Nc2ccc(F)cc2)cc1` (stereo unspecified) registered a melting point of 64.3 to 65 °C.

Compound `CSc1nc(NC2CCCC2)c2ccnc-2[nH]1` registered a melting point of 190 to 191 °C. Compound `CC(C)(C)NC(=O)c1ccccc1NS(=O)(=O)C(F)(F)F` yielded a melting point of 108 to 110 °C. Then `O=C(O)C1Cc2c(c(Cl)cc3c(-c4ccc(F)cc4)noc23)O1` (stereo unspecified), with 215 to 218 °C; and `CC1=C2c3c(cnc4cc(Cl)ccc34)NC2CCN1` (stereo unspecified), with 209 to 212 °C. Next, `COc1ccc(/C=C/C(=O)C2C(=O)CC(c3ccc(OC)cc3)C([N+](=O)[O-])C2c2ccc(OC)cc2)cc1` (stereo unspecified): 200 to 202 °C; `CCCN(CCC)C(=O)CCn1c(-c2ccc(Cl)cc2)nc2cccnc21`: 104 to 106 °C. As for `COC(=O)c1ccc(CBr)c(OC)c1`, the melting point was 87 to 90 °C. Then `CCOC(=O)C=C(C(=O)OCC)c1ccc(C(Br)Br)cc1`, with 89 to 92.5 °C; and `O=C(CCNC(=O)[C@H](Cc1ccc(-c2ccccc2)cc1)NCP(=O)(Oc1ccccc1)Oc1ccccc1)OCc1ccccc1`, with 83 to 84 °C. In turn, `CCOC(=O)c1cc(Cl)n2nc(C)nc2n1` gave a melting point of 134 to 136 °C. `CCOC(=O)N1CCC2C(C1)c1cccc3c1N2CC(=O)N3` (stereo unspecified) returned a melting point of 167 to 168 °C. Next, `CC1N=C(c2ccccc2F)c2cc(C#N)ccc2NC1=O` (stereo unspecified): 216 °C; `CC(C)n1nc(-c2cnc(N)nc2-c2ccccc2C(F)(F)F)ccc1=O`: 160 to 161 °C. `CCNC(=S)n1nc(Oc2c(F)cc(C(F)(F)F)cc2Cl)cc1C` returned a melting point of 114 to 115 °C. Next, `N[C@@H](Cc1cccc(C(F)(F)F)c1)[C@H](O)c1ccc(F)cc1` (racemic): 76 to 77 °C.

In turn, `CN(CCOc1ccc(C=O)cc1)C(=O)OC(C)(C)C` returned a melting point of 62 to 65 °C.

The record behind these values is a melting point compilation (Tetko et al.; mined from patent text by program, amines drawn as free bases though some values may be those of a salt).
